Assay results published in PMC6519835, “A family AA5_2 carbohydrate oxidase from Penicillium rubens displays functional overlap across the AA5 family” (PLoS ONE, 2019).

Key:
[1] = target: T1, FgrGaOx (galactose oxidase) (Fusarium graminearum, UniProt P0CS93); type: biochemical
T1 construct: gene GAOA

[2] = target: T2, PruAA5_2A (Penicillium rubens, UniProt B6HHT0); experiment: purified enzyme kinetics (HRP/ABTS assay) and MS of the C-6 oxidized product; […] U/mg at […]; type: biochemical
T2 construct: gene Pc21g18600; recombinant from P. pastoris
T2 sequence (B6HHT0 22-657): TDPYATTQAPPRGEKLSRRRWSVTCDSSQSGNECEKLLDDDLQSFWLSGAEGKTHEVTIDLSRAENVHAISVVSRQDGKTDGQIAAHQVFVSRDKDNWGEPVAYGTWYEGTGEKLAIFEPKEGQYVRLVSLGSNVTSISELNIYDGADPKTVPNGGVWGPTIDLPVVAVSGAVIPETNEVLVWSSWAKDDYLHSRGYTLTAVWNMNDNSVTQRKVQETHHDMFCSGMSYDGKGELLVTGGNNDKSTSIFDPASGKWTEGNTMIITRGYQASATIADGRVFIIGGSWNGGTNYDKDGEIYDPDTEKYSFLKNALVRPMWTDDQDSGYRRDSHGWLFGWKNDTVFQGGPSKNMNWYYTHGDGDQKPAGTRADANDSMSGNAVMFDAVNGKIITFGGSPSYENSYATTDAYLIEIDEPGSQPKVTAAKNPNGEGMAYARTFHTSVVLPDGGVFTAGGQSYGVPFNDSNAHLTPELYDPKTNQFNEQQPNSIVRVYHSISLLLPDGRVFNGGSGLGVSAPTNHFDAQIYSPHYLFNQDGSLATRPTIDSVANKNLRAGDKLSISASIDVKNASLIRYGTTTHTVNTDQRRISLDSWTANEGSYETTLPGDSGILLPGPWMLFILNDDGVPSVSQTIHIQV

[3] = target: T1, FgrGaOx (galactose oxidase); type: biochemical; remark: listed apart in the source
[4] = target: T2, PruAA5_2A; experiment: purified enzyme specific activity and kinetics (HRP/ABTS assay); type: biochemical
[5] = target: T2, PruAA5_2A; experiment: purified enzyme specific activity at […] (HRP/ABTS assay); type: biochemical
[6] = substrate: OC1COC(O)CO1; experiment: purified protein; type: biochemical, Penicillium rubens; details: copper; Tyr-Cys radical cofactor

T1 sequence (P0CS93 42-680 limits assumed): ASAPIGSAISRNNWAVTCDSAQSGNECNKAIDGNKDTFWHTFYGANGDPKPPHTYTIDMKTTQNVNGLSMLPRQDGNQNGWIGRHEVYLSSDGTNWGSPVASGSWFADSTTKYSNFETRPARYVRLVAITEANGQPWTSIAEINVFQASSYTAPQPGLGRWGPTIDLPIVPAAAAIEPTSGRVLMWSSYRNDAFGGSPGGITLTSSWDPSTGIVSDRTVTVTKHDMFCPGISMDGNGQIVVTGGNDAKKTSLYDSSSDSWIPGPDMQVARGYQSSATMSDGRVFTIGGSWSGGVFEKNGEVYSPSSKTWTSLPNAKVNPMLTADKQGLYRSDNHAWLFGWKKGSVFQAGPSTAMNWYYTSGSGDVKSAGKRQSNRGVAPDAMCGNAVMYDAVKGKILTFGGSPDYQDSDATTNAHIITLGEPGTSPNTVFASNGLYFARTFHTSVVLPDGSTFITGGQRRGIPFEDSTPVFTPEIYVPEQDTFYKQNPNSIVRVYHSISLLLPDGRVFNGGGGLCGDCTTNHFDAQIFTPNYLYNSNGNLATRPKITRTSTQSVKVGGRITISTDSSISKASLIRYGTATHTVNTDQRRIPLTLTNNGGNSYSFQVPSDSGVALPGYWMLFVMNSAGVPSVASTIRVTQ

## OC[C@H]1OC(O)[C@H](O)[C@@H](O)[C@H]1O (stereo partly shown) [galactose]
[1]
  purified enzyme kinetics (HRP/ABTS assay), kcat/KM 20 s^-1*mM^-1: 20000 M⁻¹ s⁻¹

## OC[C@H]1O[C@H](OC[C@H]2O[C@H](O[C@]3(CO)O[C@H](CO)[C@@H](O)[C@@H]3O)[C@H](O)[C@@H](O)[C@@H]2O)[C@H](O)[C@@H](O)[C@H]1O [raffinose]
[2]
  purified enzyme kinetics (HRP/ABTS assay) and MS of the C-6 oxidized product; 31: 31.4 U/mg
[3]
  purified enzyme kinetics (HRP/ABTS assay), kcat/KM 30 s^-1*mM^-1: 30000 M⁻¹ s⁻¹

## OCC(O)CO [glycerol]
[4]
  purified enzyme specific activity and kinetics (HRP/ABTS assay): 22.5 U/mg

## OC[C@H]1O[C@H](OC[C@H]2O[C@H](OC[C@H]3O[C@H](O[C@]4(CO)O[C@H](CO)[C@@H](O)[C@@H]4O)[C@H](O)[C@@H](O)[C@@H]3O)[C@H](O)[C@@H](O)[C@H]2O)[C@H](O)[C@@H](O)[C@H]1O [stachyose]
[5]
  purified enzyme specific activity at 300 mM (HRP/ABTS assay): 9.4 U/mg

## OC[C@H]1O[C@H](OC[C@H]2OC(O)[C@H](O)[C@@H](O)[C@@H]2O)[C@H](O)[C@@H](O)[C@H]1O (stereo partly shown) [melibiose]
[5]
  purified enzyme specific activity at 300 mM (HRP/ABTS assay): 17.5 U/mg

B1: PruAA5_2A (Penicillium rubens Wisconsin 54-1255) (protein)
chain: T2 sequence (B6HHT0 22-657)
notes: recombinant from P. pastoris
[6]
  Km: 53 mM
